The values that follow come from US20120283293A1, “Methods of neuroprotection involving Prostaglandin E2 EP4 (PGE2 EP4) receptor activation” (The Board of Trustees of the Leland Stanford Junior …, priority 2011, published 2012).

Assay [1] relates to IKK phosphorylation in BV-2 cells. Briefly: phospho-IKK quantitative Western in LPS-stimulated BV-2 cells. The following applies: LPS 100 ng/ml, AE1-329 100 nM. Format: cell-based, murine. The procedure: Nuclear and cytoplasmic fractions of BV-2 cells were prepared at several time points after treatment (0-120 minutes) using the nuclear extract kit from Active Motif (Carlsbad, Calif.). Briefly, cells were washed, collected in ice-cold PBS in the presence of phosphatase inhibitors, and centrifuged at 300×g for 5 min at 4° C. Cell pellets were resuspended in hypotonic buffer, treated with detergent, and centrifuged at 14,000×g for 30 sec at 4° C. After collection of the cytoplasmic fraction, nuclei were solubilized for 30 min in lysis buffer containing protease inhibitors. Lysates were centrifuged at 14,000×g for 30 min at 4° C. and supernatants were collected for NF-κB studies. To prepare whole cell lysates for phospho-Akt and phospho-IKK studies, cells were washed in ice-cold PBS and lysed in 20 mM Tris-HCl, pH 7.5, 150 mM NaCl, 1 mM Na2EDTA, 1 mM EGTA, 1% Triton, 2.5 mM sodium pyrophosphate, 1 mM β-glycerophosphate, 1 mM orthovanadate, 1 μg/ml leupeptin and 1 mM PMSF. […] All protein concentrations were determined using the Bradford protein assay.
(§1) Western blot analysis. […] Immunoreactivity was detected using either sheep anti-rabbit or sheep anti-mouse HRP-conjugated secondary antibody (Amersham Biosciences, Arlington Heights, Ill.), followed by enhanced chemiluminescence (Pierce). Autoradiographic signals were quantified using NIH Image. […]

Assay [2] concerns Akt phosphorylation in BV-2 cells. Briefly: phospho-Akt quantitative Western (Ser473) and ELISA (Thr308) in LPS-treated BV-2 cells. Format: cell-based, murine. Here is the method:
Nuclear and cytoplasmic fractions of BV-2 cells were prepared at several time points after treatment (0-120 minutes) using the nuclear extract kit from Active Motif (Carlsbad, Calif.). Briefly, cells were washed, collected in ice-cold PBS in the presence of phosphatase inhibitors, and centrifuged at 300×g for 5 min at 4° C. Cell pellets were resuspended in hypotonic buffer, treated with detergent, and centrifuged at 14,000×g for 30 sec at 4° C. After collection of the cytoplasmic fraction, nuclei were solubilized for 30 min in lysis buffer containing protease inhibitors. Lysates were centrifuged at 14,000×g for 30 min at 4° C. and supernatants were collected for NF-κB studies. To prepare whole cell lysates for phospho-Akt and phospho-IKK studies, cells were washed in ice-cold PBS and lysed in 20 mM Tris-HCl, pH 7.5, 150 mM NaCl, 1 mM Na2EDTA, 1 mM EGTA, 1% Triton, 2.5 mM sodium pyrophosphate, 1 mM β-glycerophosphate, 1 mM orthovanadate, 1 μg/ml leupeptin and 1 mM PMSF. Lysates were sonicated for 5 seconds, centrifuged at 14,000×g for 10 min at 4° C. and supernatants were collected for phospho-Akt and phospho-IKK studies. All protein concentrations were determined using the Bradford protein assay.
as §1
Measurements of phospho-Akt and total Akt were determined using the PathScan phospho-Akt (Thr308) and total Akt1 ELISA kits (Cell Signaling Technology, Danvers, Mass.). […]
In addition to its known Gas coupling to PKA, the EP4 receptor can signal via PI3K and Akt via a Gαi subunit (Fujino et al., 2002; Fujino & Regan, 2006). To further investigate whether EP4 signaling modulates PI3K/Akt pathway activity in LPS-stimulated BV-2 cells, levels of phospho-Akt were measured using quantitative Western analysis (phosphorylated Ser473 Akt; FIG. 3C) and ELISA (phosphorylated Thr308 Akt; FIG. 3D). […]
On the technique in general: An ELISA detects its analyte on a solid surface through an enzyme-linked reagent.

As for `COCc1ccccc1CC[C@H](O)/C=C/[C@H]1[C@H](O)CC(=O)[C@@H]1SCCCSCC(=O)O` [AE1-329], the “LPS-induced phosphorylation of IKK” value in assay [1] is “attenuated”. In addition, in assay [2] (BV-2 cells, in the absence of LPS), the “Akt phosphorylation, agonist alone” value is recorded as “did not alter Akt phosphorylation”. For the same compound, the “phospho-Ser473 Akt signal (quantitative Western)” value in assay [2] (LPS (100 ng/ml) treated BV-2 cells, AE1-329 100 nM, over 60 minutes) was “significant attenuation”. For the same compound, the “phospho-Thr308 Akt (ELISA, p-Akt/Akt)” value in assay [2] (LPS-treated BV-2 cells, AE1-329 100 nM, 60 minutes) is given as “significant decrease”.
